Measurements as given in paper PMC10882719 (Frontiers in Neuroscience, 2024).
Read-outs that look alike come from different tables or passages of the source.

Assays:
Format in all cases: cell-based
168 GPCRs [1] = molecular target: T1, 168 GPCRs (Homo sapiens, UniProt Q96LB1)
T1 construct: host or cells: PathHunter cell lines
T1 sequence (Q96LB1 1-330): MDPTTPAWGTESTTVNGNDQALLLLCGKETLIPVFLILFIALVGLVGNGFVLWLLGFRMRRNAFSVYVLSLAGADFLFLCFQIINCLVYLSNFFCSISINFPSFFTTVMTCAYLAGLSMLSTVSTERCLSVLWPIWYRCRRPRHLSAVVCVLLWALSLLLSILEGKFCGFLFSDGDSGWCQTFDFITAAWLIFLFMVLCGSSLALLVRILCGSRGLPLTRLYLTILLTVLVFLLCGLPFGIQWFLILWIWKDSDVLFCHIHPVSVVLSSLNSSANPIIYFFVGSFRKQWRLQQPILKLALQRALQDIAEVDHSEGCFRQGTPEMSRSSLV

168 GPCRs [2] = molecular target: T2, 168 GPCRs (Homo sapiens, UniProt P25116); settings: F2R
T2 construct: host or cells: PathHunter cell lines
T2 sequence (P25116 22-425): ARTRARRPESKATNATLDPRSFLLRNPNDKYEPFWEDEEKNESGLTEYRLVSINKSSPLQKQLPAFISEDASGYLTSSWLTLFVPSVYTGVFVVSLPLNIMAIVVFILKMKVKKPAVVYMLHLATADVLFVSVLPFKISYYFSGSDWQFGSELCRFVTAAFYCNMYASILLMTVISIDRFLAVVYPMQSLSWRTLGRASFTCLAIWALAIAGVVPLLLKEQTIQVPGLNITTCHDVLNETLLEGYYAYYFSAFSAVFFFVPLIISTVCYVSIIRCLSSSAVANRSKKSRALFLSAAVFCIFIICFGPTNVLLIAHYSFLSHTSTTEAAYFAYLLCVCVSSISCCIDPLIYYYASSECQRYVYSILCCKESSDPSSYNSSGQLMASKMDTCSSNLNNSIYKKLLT

168 GPCRs [3] = molecular target: T3, 168 GPCRs (Homo sapiens, UniProt P30989); settings: NTSR1
T3 construct: host or cells: PathHunter cell lines
T3 sequence (P30989 whole entry): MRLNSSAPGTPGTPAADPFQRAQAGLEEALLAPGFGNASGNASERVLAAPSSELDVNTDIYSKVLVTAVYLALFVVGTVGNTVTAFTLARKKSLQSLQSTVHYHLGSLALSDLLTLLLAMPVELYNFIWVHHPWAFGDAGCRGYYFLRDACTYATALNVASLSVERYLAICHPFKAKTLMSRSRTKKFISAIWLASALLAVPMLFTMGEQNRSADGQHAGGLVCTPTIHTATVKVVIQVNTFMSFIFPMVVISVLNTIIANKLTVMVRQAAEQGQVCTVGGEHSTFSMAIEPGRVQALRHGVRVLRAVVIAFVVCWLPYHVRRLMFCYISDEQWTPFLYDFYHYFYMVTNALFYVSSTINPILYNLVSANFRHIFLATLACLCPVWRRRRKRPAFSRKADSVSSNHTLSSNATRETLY

168 GPCRs [4] = molecular target: T4, 168 GPCRs (Homo sapiens, UniProt P32248)
T4 construct: host or cells: PathHunter cell lines
T4 sequence (P32248 25-378): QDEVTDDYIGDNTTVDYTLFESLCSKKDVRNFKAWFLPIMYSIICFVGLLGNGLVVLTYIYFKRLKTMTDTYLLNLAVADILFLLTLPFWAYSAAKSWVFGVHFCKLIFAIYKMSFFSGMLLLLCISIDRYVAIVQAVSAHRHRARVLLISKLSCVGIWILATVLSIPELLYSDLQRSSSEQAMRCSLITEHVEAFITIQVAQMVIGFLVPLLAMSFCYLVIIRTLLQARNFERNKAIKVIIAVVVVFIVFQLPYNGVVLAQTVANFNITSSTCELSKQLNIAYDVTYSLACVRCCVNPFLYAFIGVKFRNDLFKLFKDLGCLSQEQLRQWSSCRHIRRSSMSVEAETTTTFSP

168 GPCRs [5] = molecular target: T5, 168 GPCRs (Homo sapiens, UniProt P47898); settings: HTR5A
T5 construct: host or cells: PathHunter cell lines
T5 sequence (P47898 whole entry): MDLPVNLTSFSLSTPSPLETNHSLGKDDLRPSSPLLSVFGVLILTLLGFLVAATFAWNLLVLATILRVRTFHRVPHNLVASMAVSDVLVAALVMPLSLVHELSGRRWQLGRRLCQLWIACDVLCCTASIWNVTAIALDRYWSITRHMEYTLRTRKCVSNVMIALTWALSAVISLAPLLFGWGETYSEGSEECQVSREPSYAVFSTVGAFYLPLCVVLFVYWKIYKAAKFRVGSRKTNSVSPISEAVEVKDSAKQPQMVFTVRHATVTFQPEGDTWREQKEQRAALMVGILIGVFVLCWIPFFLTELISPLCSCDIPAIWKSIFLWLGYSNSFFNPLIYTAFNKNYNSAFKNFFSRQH

168 GPCRs [6] = molecular target: T6, 168 GPCRs (Homo sapiens, UniProt P43115); settings: PTGER3
T6 construct: host or cells: PathHunter cell lines
T6 sequence (P43115 1-390): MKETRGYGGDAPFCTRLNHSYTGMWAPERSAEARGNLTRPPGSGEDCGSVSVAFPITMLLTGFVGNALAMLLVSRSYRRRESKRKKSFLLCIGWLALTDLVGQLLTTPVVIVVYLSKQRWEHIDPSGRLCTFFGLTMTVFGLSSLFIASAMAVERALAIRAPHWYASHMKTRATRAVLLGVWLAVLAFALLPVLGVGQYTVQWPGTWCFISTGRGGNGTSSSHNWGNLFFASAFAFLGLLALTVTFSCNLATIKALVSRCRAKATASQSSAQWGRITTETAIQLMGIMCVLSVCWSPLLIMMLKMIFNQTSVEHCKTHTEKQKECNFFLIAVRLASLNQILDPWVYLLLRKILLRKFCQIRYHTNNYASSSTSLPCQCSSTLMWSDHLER

168 GPCRs [7] = molecular target: T7, 168 GPCRs (Homo sapiens, UniProt P61073)
T7 construct: host or cells: PathHunter cell lines
T7 sequence (P61073 whole entry): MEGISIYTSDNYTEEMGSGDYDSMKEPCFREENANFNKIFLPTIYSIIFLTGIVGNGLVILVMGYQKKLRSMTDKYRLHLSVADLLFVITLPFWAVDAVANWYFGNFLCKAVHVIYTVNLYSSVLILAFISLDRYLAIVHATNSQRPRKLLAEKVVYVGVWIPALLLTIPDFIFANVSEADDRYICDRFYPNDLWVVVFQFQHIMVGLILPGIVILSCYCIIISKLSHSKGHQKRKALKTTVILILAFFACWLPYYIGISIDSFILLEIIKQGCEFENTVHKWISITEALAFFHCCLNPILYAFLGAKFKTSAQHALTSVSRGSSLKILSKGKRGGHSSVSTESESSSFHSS

168 GPCRs [8] = molecular target: T8, 168 GPCRs (Homo sapiens, UniProt P51681)
T8 construct: host or cells: PathHunter cell lines
T8 sequence (P51681 whole entry): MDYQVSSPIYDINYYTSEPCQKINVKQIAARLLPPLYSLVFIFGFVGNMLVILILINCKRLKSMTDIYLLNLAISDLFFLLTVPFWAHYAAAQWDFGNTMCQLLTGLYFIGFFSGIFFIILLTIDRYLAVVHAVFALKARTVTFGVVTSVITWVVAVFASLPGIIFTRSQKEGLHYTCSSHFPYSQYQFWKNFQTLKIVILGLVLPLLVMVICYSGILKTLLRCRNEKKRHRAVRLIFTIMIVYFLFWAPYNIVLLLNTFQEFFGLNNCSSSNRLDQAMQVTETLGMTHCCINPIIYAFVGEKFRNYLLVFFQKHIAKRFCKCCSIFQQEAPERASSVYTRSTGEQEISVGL

168 GPCRs [9] = molecular target: T9, 168 GPCRs (Homo sapiens, UniProt P30550); settings: GRPR
T9 construct: host or cells: PathHunter cell lines
T9 sequence (P30550 whole entry): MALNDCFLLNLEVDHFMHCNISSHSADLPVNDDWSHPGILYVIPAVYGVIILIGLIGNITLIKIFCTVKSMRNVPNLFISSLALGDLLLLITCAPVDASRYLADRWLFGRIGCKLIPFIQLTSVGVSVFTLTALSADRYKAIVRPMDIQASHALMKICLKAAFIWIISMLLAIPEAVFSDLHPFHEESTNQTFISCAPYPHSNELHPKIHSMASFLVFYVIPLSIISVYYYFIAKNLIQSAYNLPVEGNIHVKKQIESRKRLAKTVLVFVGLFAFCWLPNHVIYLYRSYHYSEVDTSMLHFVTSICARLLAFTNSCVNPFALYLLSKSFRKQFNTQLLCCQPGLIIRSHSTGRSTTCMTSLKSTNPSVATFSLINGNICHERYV

Compound	% Agonist Activity (168 GPCRs [1]; MRGPRX2, 1 uM) [%]	% Antagonist Activity (168 GPCRs [1]; MRGPRX2, 1 uM) [%]	% Agonist Activity (168 GPCRs [1]; MRGPRX2, 10 uM) [%]	% Antagonist Activity (168 GPCRs [1]; MRGPRX2, 10 uM) [%]	% Agonist Activity (168 GPCRs [2]; 1 uM) [%]	% Antagonist Activity (168 GPCRs [2]; 1 uM) [%]	% Agonist Activity (168 GPCRs [2]; 10 uM) [%]	% Antagonist Activity (168 GPCRs [2]; 10 uM) [%]	% Agonist Activity (168 GPCRs [3]; Conc 1 uM) [%]	% Antagonist Activity (168 GPCRs [3]; Conc 1 uM) [%]	% Agonist Activity (168 GPCRs [3]; Conc 10 uM) [%]	% Antagonist Activity (168 GPCRs [3]; Conc 10 uM) [%]	% Agonist Activity (168 GPCRs [4]; CCR7, 1 uM) [%]	% Antagonist Activity (168 GPCRs [4]; CCR7, 1 uM) [%]	% Agonist Activity (168 GPCRs [4]; CCR7, 10 uM) [%]	% Antagonist Activity (168 GPCRs [4]; CCR7, 10 uM) [%]	% Antagonist Activity (168 GPCRs [5]; 1 uM) [%]	% Antagonist Activity (168 GPCRs [5]; 10 uM) [%]	% Agonist Activity (168 GPCRs [6]; Conc 1 uM) [%]	% Antagonist Activity (168 GPCRs [6]; Conc 1 uM) [%]	other results
CNC(C)Cc1ccc2c(c1)OCO2 (centres unmarked) [MDMA, 3,4-Methylenedioxy methamphetamine, reference compound]	-0.8	-6	-0.8	1.9	-0.7	1.2	-1.2	5.9	-0.8	8.7	1.2	0.5	1.9	1.5	2.6	6.8	-16.4	-6.4	3.5	5.2	% Agonist Activity (168 GPCRs [6]; Conc 10 uM): 3.6%; % Antagonist Activity (168 GPCRs [6]; Conc 10 uM): 4.2%; % Agonist Activity (168 GPCRs [7]; CXCR4, 1 uM): 3.1%; % Antagonist Activity (168 GPCRs [7]; CXCR4, 1 uM): 19.6%; % Agonist Activity (168 GPCRs [7]; CXCR4, 10 uM): 2.5%; % Antagonist Activity (168 GPCRs [7]; CXCR4, 10 uM): 14.6%; % Agonist Activity (168 GPCRs [8]; CCR5, 1 uM): 0.2%; % Antagonist Activity (168 GPCRs [8]; CCR5, 1 uM): 4.5%; % Agonist Activity (168 GPCRs [8]; CCR5, 10 uM): 0.1%; % Antagonist Activity (168 GPCRs [8]; CCR5, 10 uM): 9.8%; % Agonist Activity (168 GPCRs [9]; 1 uM): -0.3%; % Antagonist Activity (168 GPCRs [9]; 1 uM): 1.9%; % Agonist Activity (168 GPCRs [9]; 10 uM): -0.6%; % Antagonist Activity (168 GPCRs [9]; 10 uM): 1.8%
CNC(C)C(=O)c1ccc2c(c1)OCO2 (centres unmarked) [methylone]	1.4	16.2	0.7	8.9	-2.5	-11.6	0.2	-11.4	-4.7	-0.7	-3.5	-1.7	-3.4	-8.3	-3.7	-3.4	9.8	1.6	4.5	-6.2	% Agonist Activity (168 GPCRs [6]; Conc 10 uM): 1.9%; % Antagonist Activity (168 GPCRs [6]; Conc 10 uM): -5.7%; % Agonist Activity (168 GPCRs [7]; CXCR4, 1 uM): -4%; % Antagonist Activity (168 GPCRs [7]; CXCR4, 1 uM): 10.7%; % Agonist Activity (168 GPCRs [7]; CXCR4, 10 uM): 7%; % Antagonist Activity (168 GPCRs [7]; CXCR4, 10 uM): -4.2%; % Agonist Activity (168 GPCRs [8]; CCR5, 1 uM): -0.1%; % Antagonist Activity (168 GPCRs [8]; CCR5, 1 uM): 1.7%; % Agonist Activity (168 GPCRs [8]; CCR5, 10 uM): 0.3%; % Antagonist Activity (168 GPCRs [8]; CCR5, 10 uM): -0.5%; % Agonist Activity (168 GPCRs [9]; 1 uM): 0%; % Antagonist Activity (168 GPCRs [9]; 1 uM): 0.7%; % Agonist Activity (168 GPCRs [9]; 10 uM): -0.1%; % Antagonist Activity (168 GPCRs [9]; 10 uM): -1.4%
